In patent publication US20100160335A1, “PYRIDAZINONE DERIVATIVE AND PDE INHIBITOR CONTAINING THE SAME AS ACTIVE INGREDIENT” (KYORIN PHARMACEUTICAL CO., LTD., priority 2007, published 2010):

Columns and labels:
[1] = molecular target: T1, PDE3A catalytic domain (PDE3Acat) (Homo sapiens, UniProt Q14432); assay: Phosphodiesterase inhibitory activity, PDE3 ([3H]cAMP, recombinant enzyme); type: biochemical; conditions: 30° C., 20 minutes, read-out: IC50(μmol/L) PDE3
T1 construct: made in house; host or cells: Sf9 insect cells (baculovirus, Bac-to-Bac / Gateway)

[2] = molecular target: T2, PDE4Bcat (Homo sapiens, UniProt Q07343); assay: Phosphodiesterase inhibitory activity, PDE4 ([3H]cAMP, recombinant enzyme); type: biochemical; conditions: 30° C., 20 minutes, read-out: IC50(μmol/L) PDE4
T2 construct: made in house; host or cells: Sf9 insect cells (baculovirus, Bac-to-Bac / Gateway)

[3] = test system: histamine-induced bronchoconstriction in guinea pigs; assay: Histamine-induced bronchoconstriction reaction in guinea pigs; type: in vivo; conditions: Cavia porcellus, iv, 0.5 min, guinea pig, measured 30 seconds after administration, read-out: Inhibition rate (histamine-induced bronchoconstriction); for inhibition in vivo at 0.1 mg/kg: compound 0.1 mg/kg, i.v. (values in [ ]); for inhibition in vivo at 0.3 mg/kg: compound 0.3 mg/kg, i.v.
Description: Guinea pigs were anesthetized with pentobarbital (30 mg/kg, i.p.). A cannula for intravenous administration was inserted into the left external jugular vein, a cannula for collecting blood and measuring blood pressure was inserted into the right internal carotid artery, and a tracheal cannula was inserted into the trachea. The guinea pigs were maintained on artificial respiration under the conditions of 60 times/min and 10 mL/kg/stroke. The airflow from the side branch of the tracheal cannula was measured by a bronchospasm transducer (Ugo-Basile) and recorded on a computer via Power Lab (ADInstruments Japan). The guinea pigs were immobilized with gallamine (10 mg/kg, i.v.), and histamine (12.5 μg/kg, i.v.) was administered at 10-minute intervals. After the histamine-induced bronchoconstriction became stable, the compound (0.3 mg/kg, i.v.) was administered. The histamine-induced bronchoconstriction reaction was measured 30 seconds after the compound administration to examine the bronchoconstriction inhibitory activity of the compound. The bronchoconstriction was recorded as the airflow value, and the results were represented by the ratio of the maximum value of the histamine- induced airflow 30 seconds after the administration to the maximum value of the airflow before the administration. Also, the test compounds dissolved in DMSO were used. Further, the indications were as follows: inhibition rate≧90% (+++), 90%>inhibition rate≧80% (++), and 80%>inhibition rate≧70% (+). [ ] means the results in the case of 0.1 mg/kg, i.v.

T1 sequence (Q14432 674-1093 limits assumed): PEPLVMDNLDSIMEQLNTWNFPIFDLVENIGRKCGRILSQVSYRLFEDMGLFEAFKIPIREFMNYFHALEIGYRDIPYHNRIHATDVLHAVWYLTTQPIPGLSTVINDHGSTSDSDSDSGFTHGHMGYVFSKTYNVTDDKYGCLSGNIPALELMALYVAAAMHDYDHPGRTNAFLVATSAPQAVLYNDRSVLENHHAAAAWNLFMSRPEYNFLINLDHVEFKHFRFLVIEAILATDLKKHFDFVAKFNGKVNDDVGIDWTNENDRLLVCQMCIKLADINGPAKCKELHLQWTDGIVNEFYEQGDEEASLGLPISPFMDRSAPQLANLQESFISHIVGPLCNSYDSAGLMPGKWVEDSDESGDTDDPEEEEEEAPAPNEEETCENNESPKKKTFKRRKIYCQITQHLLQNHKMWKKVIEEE
T2 sequence (Q07343 330-659 limits assumed): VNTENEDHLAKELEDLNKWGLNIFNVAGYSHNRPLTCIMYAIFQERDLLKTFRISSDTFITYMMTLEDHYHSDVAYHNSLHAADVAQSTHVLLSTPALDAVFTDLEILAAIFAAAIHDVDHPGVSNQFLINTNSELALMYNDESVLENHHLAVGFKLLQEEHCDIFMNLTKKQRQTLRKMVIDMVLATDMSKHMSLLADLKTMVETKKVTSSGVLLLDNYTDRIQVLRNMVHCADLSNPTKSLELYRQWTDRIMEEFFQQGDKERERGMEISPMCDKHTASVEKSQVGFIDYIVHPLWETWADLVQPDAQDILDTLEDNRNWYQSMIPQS

Row | SMILES | IC50 [1] [µmol/L] | IC50 [2] [µmol/L] | inhibition in vivo at 0.1 mg/kg [3] [%] | inhibition in vivo at 0.3 mg/kg [3] [%]
1 | CCc1ccc2c(C3=NN(CCCCOc4ccc(C5=NNC(=O)CC5C)cc4F)C(=O)CC3C)ccc(OC)c2n1 (stereo not shown) [Example 294, 6-(2-Ethyl-8-methoxyquinolin-5-yl)-5-methyl-2-[4-[2-fluoro-4-(4-methyl-6-oxo-1,4,5,6-tetrahydropyridazin-3-yl)phenoxy]butyl]-4,5-dihydro-2H-pyridazin-3-one] | < 0.1 | < 0.1 | ≥ 90 | 
2 | COc1ccc(C2=NN(CCCCOc3ccc(C4=NNC(=O)CC4C)cc3)C(=O)CC2C)c2ccc(C(C)C)nc12 (stereo not shown) [Example 269, 6-(8-Methoxy-2-isopropylquinolin-5-yl)-5-methyl-2-[4-[4-(4-methyl-6-oxo-1,4,5,6-tetrahydropyridazin-3-yl)phenoxy]butyl]-4,5-dihydro-2H-pyridazin-3-one] | < 0.1 | 0.1 to 1 | 80 to 90 | 
3 | COc1ccc(C2=NN(CCCCOc3ccc(C4=NNC(=O)CC4C)cc3)C(=O)CC2C)c2ccc(C)nc12 (stereo not shown) [Example 267, 6-(8-Methoxy-2-methylquinolin-5-yl)-5-methyl-2-[4-[4-(4-methyl-6-oxo-1,4,5,6-tetrahydropyridazin-3-yl)phenoxy]butyl]-4,5-dihydro-2H-pyridazin-3-one] | 0.1 to 1 | < 0.1 |  | ≥ 90
4 | COc1ccc(-c2ccc(=O)n(CCCCOc3ccc(C4=NNC(=O)CC4C)cc3)n2)c2cccnc12 (stereo not shown) [Example 318, 6-(8-Methoxyquinolin-5-yl)-2-[4-[4-(4-methyl-6-oxo-1,4,5,6-tetrahydropyridazin-3-yl)phenoxy]butyl]-2H-pyridazin-3-one] | < 0.1 | 0.1 to 1 |  | ≥ 90
5 | COc1ccc(-c2ccc(=O)n(CCCCOc3ccc(C4=NNC(=O)C4(C)C)c(F)c3F)n2)c2sc(C(F)(F)F)nc12 [Example 309, 2-[4-[2,3-Difluoro-4-(4,4-dimethyl-5-oxo-4,5-dihydro-1H-pyrazol-3-yl)phenoxy]butyl]-6-(4-methoxy-2-trifluoromethylbenzothiazol-7-yl)-2H-pyridazin-3-one] | < 0.1 | < 0.1 |  | 
6 | CCc1ccc2c(-c3ccc(=O)n(CCCOc4ccc(C5=NNC(=O)C5(C)C)c(F)c4F)n3)ccc(OC)c2n1 [Example 327, 6-(2-Ethyl-8-methoxyquinolin-5-yl)-2-[3-[2,3-difluoro-4-(4,4-dimethyl-5-oxo-4,5-dihydro-1H-pyrazol-3-yl)phenoxy]propyl]-2H-pyridazin-3-one] | 1 to 10 | 0.1 to 1 |  | 
7 | COc1ccc(-c2ccc(=O)n(CCCCOc3ccc(C4=NNC(=O)CC4C)c(F)c3F)n2)c2cc(C(F)(F)F)oc12 (stereo not shown) [Example 276, 2-[4-[2,3-Difluoro-4-(4-methyl-6-oxo-1,4,5,6-tetrahydropyridazin-3-yl)phenoxy]butyl]-6-(7-methoxy-2-trifluoromethylbenzofuran-4-yl)-2H-pyridazin-3-one] | < 0.1 | 0.1 to 1 |  | 
8 | CCc1ccc2c(-c3ccc(=O)n(CCOc4ccc(C5=NNC(=O)CC5C)c(F)c4F)n3)ccc(OC)c2n1 (stereo not shown) [Example 324, 6-(2-Ethyl-8-methoxyquinolin-5-yl)-2-[2-[2,3-difluoro-4-(4-methyl-6-oxo-1,4,5,6-tetrahydropyridazin-3-yl)phenoxy]ethyl]-2H-pyridazin-3-one] | < 0.1 | 0.1 to 1 |  | 
9 | CCc1ccc2c(-c3ccc(=O)n(CCCOc4ccc(C5=NNC(=O)CC5)c(F)c4F)n3)ccc(OC)c2n1 [Example 326, 6-(2-Ethyl-8-methoxyquinolin-5-yl)-2-[3-[2,3-difluoro-4-(6-oxo-1,4,5,6-tetrahydropyridazin-3-yl)phenoxy]propyl]-2H-pyridazin-3-one] | 1 to 10 | 1 to 10 |  | 
10 | COc1ccc(-c2ccc(=O)n(CCCCOc3ccc(C4=NNC(=O)CC4)c(F)c3F)n2)c2sc(C(F)(F)F)nc12 [Example 308, 2-[4-[2,3-Difluoro-4-(6-oxo-1,4,5,6-tetrahydropyridazin-3-yl)phenoxy]butyl]-6-(4-methoxy-2-trifluoromethylbenzothiazol-7-yl)-2H-pyridazin-3-one] | < 0.1 | < 0.1 |  | 
11 | COc1ccc(-c2ccc(=O)n(CCCCOc3ccc(C4=NNC(=O)C4(C)C)c(F)c3F)n2)c2nc(C(F)(F)F)nn12 [Example 306, 2-[4-[2,3-Difluoro-4-(4,4-dimethyl-5-oxo-4,5-dihydro-1H-pyrazol-3-yl)phenoxy]butyl]-6-(5-methoxy-2-trifluoromethyl-[1,2,4]triazolo[1,5-a]pyridin-8-yl)-2H-pyridazin-3-one] | 1 to 10 | 1 to 10 |  | 
12 | COc1ccc(-c2ccc(=O)n(CCCCOc3ccc(C4=NNC(=O)CC4C)cc3)n2)c2ccc(C)nc12 (stereo not shown) [Example 268, 6-(8-Methoxy-2-methylquinolin-5-yl)-2-[4-[4-(4-methyl-6-oxo-1,4,5,6-tetrahydropyridazin-3-yl)phenoxy]butyl]-2H-pyridazin-3-one] | 0.1 to 1 | 0.1 to 1 |  | 
13 | COc1ccc(-c2ccc(=O)n(CCCCOc3ccc(C4=NNC(=O)CC4C)cc3)n2)c2ccc(C(C)C)nc12 (stereo not shown) [Example 270, 6-(8-Methoxy-2-isopropylquinolin-5-yl)-2-[4-[4-(4-methyl-6-oxo-1,4,5,6-tetrahydropyridazin-3-yl)phenoxy]butyl]-2H-pyridazin-3-one] | < 0.1 | 0.1 to 1 |  | 
14 | CCc1ccc2c(-c3ccc(=O)n(CCCCOc4ccc(C5=NNC(=O)C5(C)C)cc4OC)n3)ccc(OC)c2n1 [Example 286, 6-(2-Ethyl-8-methoxyquinolin-5-yl)-2-[4-[2-methoxy-4-(4,4-dimethyl-5-oxo-4,5-dihydro-1H-pyrazol-3-yl)phenoxy]butyl]-2H-pyridazin-3-one] | ≥ 10 | 1 to 10 |  | 

Continued, in another order:

Row | IC50 [1] [µmol/L] | IC50 [2] [µmol/L] | SMILES | inhibition in vivo at 0.1 mg/kg [3] [%] | inhibition in vivo at 0.3 mg/kg [3] [%]
15 | < 0.1 | 1 to 10 | COc1ccc(-c2ccc(=O)n(CCCCOc3ccc(C4=NNC(=O)CC4C)c(F)c3F)n2)c2cc(C(F)(F)F)sc12 (stereo not shown) [Example 330, 2-[4-[2,3-Difluoro-4-(4-methyl-6-oxo-1,4,5,6-tetrahydropyridazin-3-yl)phenoxy]butyl]-6-(7-methoxy-2-trifluoromethylbenzo[b]thiophen-4-yl)-2H-pyridazin-3-one] |  | 
16 | 0.1 to 1 | 0.1 to 1 | CCc1nc2c(OC)ccc(-c3ccc(=O)n(CCCCOc4ccc(C5=NNC(=O)C5(C)C)c(F)c4F)n3)c2o1 [Example 335, 6-(2-Ethyl-4-methoxybenzooxazol-7-yl)-2-[4-[2,3-difluoro-4-(4,4-dimethyl-5-oxo-4,5-dihydro-1H-pyrazol-3-yl)phenoxy]butyl]-2H-pyridazin-3-one] |  | 
17 | 0.1 to 1 | 0.1 to 1 | COc1ccc(-c2ccc(=O)n(CCCCOc3ccc(C4=NNC(=O)C4(C)C)c(F)c3F)n2)n2cc(C(F)(F)F)nc12 [Example 338, 2-[4-[2,3-Difluoro-4-(4,4-dimethyl-5-oxo-4,5-dihydro-1H-pyrazol-3-yl)phenoxy]butyl]-6-(8-methoxy-2-trifluoromethylimidazo[1,2-a]pyridin-5-yl)-2H-pyridazin-3-one] |  | 
18 | 0.1 to 1 | 0.1 to 1 | COc1ccc(-c2ccc(=O)n(CCCCOc3ccc(C4=NNC(=O)CC4)c(F)c3F)n2)n2cc(C(F)(F)F)nc12 [Example 337, 2-[4-[2,3-Difluoro-4-(6-oxo-1,4,5,6-tetrahydropyridazin-3-yl)phenoxy]butyl]-6-(8-methoxy-2-trifluoromethylimidazo[1,2-a]pyridin-5-yl)-2H-pyridazin-3-one] |  | 
19 | < 0.1 | 1 to 10 | COc1ccc(-c2ccc(=O)n(CCCCOc3ccc(C4=NNC(=O)CC4)c(F)c3F)n2)c2cc(C(F)(F)F)sc12 [Example 331, 2-[4-[2,3-Difluoro-4-(6-oxo-1,4,5,6-tetrahydropyridazin-3-yl)phenoxy]butyl]-6-(7-methoxy-2-trifluoromethylbenzo[b]thiophen-4-yl)-2H-pyridazin-3-one] |  | 
20 | 0.1 to 1 | 1 to 10 | COc1ccc(-c2ccc(=O)n(CCCCOc3ccc(C4=NNC(=O)C4(C)C)c(F)c3F)n2)c2cc(C(F)(F)F)sc12 [Example 332, 2-[4-[2,3-Difluoro-4-(4,4-dimethyl-5-oxo-4,5-dihydro-1H-pyrazol-3-yl)phenoxy]butyl]-6-(7-methoxy-2-trifluoromethylbenzo[b]thiophen-4-yl)-2H-pyridazin-3-one] |  | 
21 | < 0.1 | 0.1 to 1 | CCc1nc2c(OC)ccc(-c3ccc(=O)n(CCCCOc4ccc(C5=NNC(=O)CC5)c(F)c4F)n3)c2o1 [Example 333, 6-(2-Ethyl-4-methoxybenzooxazol-7-yl)-2-[4-[2,3-difluoro-4-(6-oxo-1,4,5,6-tetrahydropyridazin-3-yl)phenoxy]butyl]-2H-pyridazin-3-one] |  | 
